Test results published in patent US20240366611A1, “METHODS OF TREATING A DISEASE OR DISORDER” (Ascentage Pharma (Suzhou) Co., Ltd., priority 2021, published 2024).

Legend:
HbF in human CD34+ HSC = test: HbF concentration in human CD34+ HSC by ELISA; assay type: cell-based; details: 7 days of treatment
Experimental: (§1) Human cord blood CD34+ hematopoietic stem cells (HSC) were first expanded in the expansion medium (StemSpan SFEM II+StemSpan CD34 Expansion Supplement) to achieve the desired number of cells, and then differentiated in differentiation medium (StemSpan SFEM II+StemSpan Erythroid Expansion Supplement (100×)) for three days without drug treatment. Various concentrations of Cpd. 73 were added on the fourth day of differentiation and further incubated with the cells for another 7 days. 33 mM Hydroxyurea was used as the control.
After 7 days of treatment, the cells were collected and lysed. The concentration of HbF in the cell lysate was determined using a Human Fetal Hemoglobin (HBF) ELISA Kit (MyBioSource, MBS2024474). […] The cellular HbF concentration were 1.27-, 1.39-, 1.52-, 1.58- and 1.69-folds of the vehicle group when the cells were treated with 0.01 μM, 0.03 μM, 0.1 μM, 0.3 μM and 1.0 μM Cpd. 73 respectively. […] 73 where the cellular HbF concentration was 1.69-folds of the vehicle group (p<0.01). HbF concentration of cells treated with 33 mM Hydroxyurea was 1.18-folds of the vehicle group. Clinically, small increases of HbF concentration (1-5%) have the potential to provide clinical benefits to all SCD patients.

[1] = system: chronic kidney disease-induced anemia in SD rats; test: Rat model of chronic kidney disease-induced anemia (adenine); assay type: in vivo; details: 5, 15, 45 mg/kg po QD×4 weeks, end of study
Experimental: SPF-grade male SD rats (200±20 g, 8 weeks) were purchased from Zhejiang Vital River Laboratory Animal Technology Co., Ltd. After acclimating for a week, blood samples were collected and analyzed to exclude anormal animals. The normal animals were randomized, 10 animals were assigned into Control group which were left untreated until the end of the study, and the rest animals received 300 mg/kg adenine by oral gavage (QD×6 weeks). […] Then 60 adenine-treated rats with successful model establishment were further randomized into the following six groups: Model group (treated with vehicle), EPO group (50 U/kg), Cpd. 73 5 mg/kg group, Cpd. 73 15 mg/kg group, Cpd. 73 45 mg/kg group and CPD. 73+EPO group (15 mg/kg+50 U/kg). Each group contained 10 animals. Cpd. 73 was administered to rats by oral gavage (QD×4 weeks), while EPO was subcutaneously administered (TIW×4 weeks).
Body weight, mortality and health condition of rats were recorded twice a week. After model establishment, blood samples were take from the orbit and a few parameters were determined including RBC, HGB, HCT, RET, BUN and Creatine. Blood samples were taken once a week during drug treatment and RBC, HGB, HCT, and RET were analyzed.

[2] = system: HBG mRNA in human CD34+ HSC; test: HBG mRNA level in human CD34+ HSC (qRT-PCR); assay type: cell-based; details: 7 days of treatment
Experimental: as §1
After 7 days of treatment, the cells were collected. Total RNA was isolated using Trizol LS reagent (Invitrogen-10296028) and 1 μg RNA of each sample was reverse transcribed into cDNA using High Capacity cDNA Reverse Transcription Kit (AB (Applied Biosystems)-4374966), according to the manufacturer's instructions. Quantitative RT-PCR (qRT-PCR) was performed using an Applied Biosystems QuantStudio 7 Flex system with the primer pairs shown as below: hHBG-mRNA-F1 (5′-[…]-3′) and hHBG-mRNA-R1 (5′-TCACTCAGCTGGGCAAAGG-3′). […] The HBG mRNA level were 1.09-, 2.49-, 7.84-, 9.69- and 12.2-folds of the vehicle group when the cells were treated with 0.01 μM, 0.03 μM, 0.1 μM, 0.3 μM and 1.0 μM Cpd. 73 respectively. […] 73 which increased HBG mRNA by 12.2 folds (p<0.0001, vs. vehicle). The HBG mRNA level of cells treated with 33 mM Hydroxyurea, an approved medicine for SCD, was 6.46-folds of the vehicle group.

Hbb-bh1 mRNA = Hbb-bh1 mRNA level in whole blood (qPCR, relative to GAPDH); assay type: in vivo, CD-1 mice
Experimental: Female CD-1 mice (8 weeks old) were housed and handled in a temperature-controlled environment with a 12-h light/12-h dark cycle. A total of 25 mice were assigned to 5 groups by randomization based on body weight, followed by 5 days of treatment with vehicle (po, qd), 3 mg/kg Cpd. 73 (po, qd), 10 mg/kg Cpd. 73 (po, qd), 30 mg/kg Cpd. 73 (po, qd), or 90 mg/kg Cpd. 73 (po, qd). The protocols and procedures involving the care and use of animals were approved by the Institutional Animal Care and Use Committee (IACUC) of WuXiAppTec (Shanghai) Co., Ltd. (Shanghai, China).
Mouse Hbb-bh1 gene, the homolog to human HBG1 gene encoding γ hemoglobin, is used as an efficacy biomarker in wide-type CD-1 mice. One hundred and twenty μL whole blood was collected for RNA isolation following the instructions of Trizol LS reagent (Invitrogen, 10296028). The relative expression of Hbb-bh1 mRNA to GAPDH mRNA were quantified by qPCR. The relative expression of Hbb-bh1 mRNA in the whole blood of CD-1 mice increased with increasing dose of Cpd. 73 from 3 mg/kg (qd×5 days) to 90 mg/kg (qd×5 days). The Hbb-bh1 mRNA levels were 82.2%, 114.6% and 178.3% of the vehicle control group when Cpd. […] 73 (p<0.05, vs. vehicle). The increased expression of Hbb-bh1 mRNA may result in increased expression of mouse βh1 hemoglobin.

## CC(C)N1Cc2cc(C(F)(F)F)ncc2-c2cnc(NCc3c(F)ccc4c3CCO4)n3cnc(c23)C1=O [Cpd. 73, 12-(((5-fluoro-2,3-dihydrobenzofuran-4-yl)methyl)amino)-4-isopropyl-7-(trifluoromethyl)-4,5-dihydro-3H-2,4,8,11,12a-pentaazabenzo[4,5]cycloocta[1,2,3-cd]inden-3-one]
HbF in human CD34+ HSC; 0.01 μM
  cellular HbF concentration, folds of the vehicle group: 1.27 folds
HbF in human CD34+ HSC; 0.03 μM
  cellular HbF concentration, folds of the vehicle group: 1.39 folds
HbF in human CD34+ HSC; 0.1 μM
  cellular HbF concentration, folds of the vehicle group: 1.52 folds
HbF in human CD34+ HSC; 0.3 μM
  cellular HbF concentration, folds of the vehicle group: 1.58 folds
HbF in human CD34+ HSC; 1.0 μM, maximal effect, p<0.01
  cellular HbF concentration, folds of the vehicle group: 1.69 folds
[1]; p<0.001 or 0.01 vs Model
  body weight: dose-dependently improved
[1]; p<0.001 or 0.05 vs Model
  HCT: dose-dependently improved
  HGB: dose-dependently improved
  RBC: dose-dependently improved
  RET: dose-dependently improved
[2]; 0.01 μM
  HBG mRNA level, folds of the vehicle group: 1.09 folds
[2]; 0.03 μM
  HBG mRNA level, folds of the vehicle group: 2.49 folds
[2]; 0.1 μM
  HBG mRNA level, folds of the vehicle group: 7.84 folds
[2]; 0.3 μM
  HBG mRNA level, folds of the vehicle group: 9.69 folds
[2]; 1.0 μM, maximal effect, p<0.0001 vs vehicle
  HBG mRNA level, folds of the vehicle group: 12.2 folds
Hbb-bh1 mRNA; 3 mg/kg po qd×5 days
  Hbb-bh1 mRNA level, of the vehicle control group: 82.2%
Hbb-bh1 mRNA; 10 mg/kg po qd×5 days
  Hbb-bh1 mRNA level, of the vehicle control group: 114.6%
Hbb-bh1 mRNA; 30 mg/kg po qd×5 days
  Hbb-bh1 mRNA level, of the vehicle control group: 178.3%
Hbb-bh1 mRNA; 90 mg/kg po qd×5 days, p<0.05 vs vehicle
  Hbb-bh1 mRNA, fold of increase: 3.04 fold
